Our source for the pest or weed control, Corn plant response rating (crop injury, 0 = no effect, 100 = complete kill) and plant injury values is patent US12077503B2, “Substituted cyclic amides and their use as herbicides” (FMC CORPORATION, priority 2015, dated 2024).

Holding throughout (format): in vivo
For assay [1], the system named is ducksalad (Heteranthera limosa). The assay can be described thus: Test B flooded paddy test. The settings on record: Heteranthera limosa, Flood, 250 g ai/ha; scale of 0 to 100 where 0 is no effect and 100 is complete control; read-out: Ducksalad plant response rating. In outline:
(§1)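 Flooding to 3 cm over soil accompanied treatment, which consisted of adding compound to the standing water around 2-leaf plants; depth was then maintained. Visual assessment versus controls followed at 13 to 15 d (scale 0–100, 0 meaning no effect).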

Another assay concerns rice (Oryra sativa). Description: Test B flooded paddy test. The note with it: Oryza sativa, Flood, 250 g ai/ha; scale of 0 to 100 where 0 is no effect and 100 is complete control; read-out: Rice plant response rating. The method in brief:
as §1

Assay [2] deals with sedge, umbrella (small-flower umbrella sedge, Cyperus difformis). The assay can be described thus: Test B flooded paddy test. The settings on record: Cyperus difformis, 250 g ai/ha, Flood, read-out: Sedge, Umbrella plant response rating. The method in brief: as §1
Assay [3] deals with barnyardgrass (Echinochloa crus-galli). Description: Test B flooded paddy test. The note with it: Echinochloa crus-galli, Flood, 250 g ai/ha; scale of 0 to 100 where 0 is no effect and 100 is complete control; read-out: Barnyardgrass plant response rating. In outline: as §1
Another assay deals with corn (Zea mays). Description: Test A postemergence. The settings on record: Zea mays, post-emergence, 240 h, 125 g ai/ha, Postemergence; visual injury after approximately 10 d; 0 to 100 scale where 0 is no effect and 100 is complete control. The method in brief:
(§2)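 Preemergence directed soil spray on seeded pots, or postemergence application to plants 2–10 cm, one- to two-leaf. Solvent mixture non-phytotoxic, with surfactant. Scored ~10 d later, visually, 0–100 vs untreated.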

The test system of assay [4] is ragweed (common ragweed, Ambrosia elatior). Description: Test A postemergence. The settings on record: Ambrosia artemisiifolia, post-emergence, 240 h, 125 g ai/ha, Postemergence; visual injury after approximately 10 d; 0 to 100 scale where 0 is no effect and 100 is complete control; read-out: Plant response rating, Ragweed. The method in brief:
as §2

Assay [5] deals with wheat (Triticum aestivum). The assay can be described thus: Test A postemergence. The settings on record: Triticum aestivum, post-emergence, 240 h, 125 g ai/ha, Postemergence; visual injury after approximately 10 d; 0 to 100 scale where 0 is no effect and 100 is complete control; read-out: Plant response rating, Wheat. In outline: as §2
For assay [6], the system named is Galium (catchweed bedstraw, Galium aparine). The assay can be described thus: Test A postemergence. The note with it: Galium, post-emergence, 240 h, 125 g ai/ha, Postemergence; visual injury after approximately 10 d; 0 to 100 scale where 0 is no effect and 100 is complete control; read-out: Plant response rating, Galium. In outline: as §2
For assay [7], the system named is ryegrass, Italian (Italian ryegrass, Lolium multiflorum). The assay can be described thus: Test A postemergence. The settings on record: Lolium multiflorum, post-emergence, 240 h, 125 g ai/ha, Postemergence; visual injury after approximately 10 d; 0 to 100 scale where 0 is no effect and 100 is complete control; read-out: Plant response rating, Ryegrass, Italian. In outline: as §2

Assay [8] concerns giant foxtail (Setaria faberii). Description: Test A postemergence. The settings on record: Setaria faberi, post-emergence, 240 h, 125 g ai/ha, Postemergence; visual injury after approximately 10 d; 0 to 100 scale where 0 is no effect and 100 is complete control; read-out: Plant response rating, Foxtail, Giant. The method in brief: as §2
The test system of assay [9] is pigweed (Amaranthus retroflexus). Description: Test A postemergence. The note with it: Amaranthus retroflexus, post-emergence, 240 h, 125 g ai/ha, Postemergence; visual injury after approximately 10 d; 0 to 100 scale where 0 is no effect and 100 is complete control; read-out: Plant response rating, Pigweed. The method in brief: as §2
Assay [10] has as its system blackgrass (Alopecurus myosuroides). The assay can be described thus: Test A postemergence. The settings on record: Alopecurus myosuroides, post-emergence, 240 h, 125 g ai/ha, Postemergence; visual injury after approximately 10 d; 0 to 100 scale where 0 is no effect and 100 is complete control; read-out: Plant response rating, Blackgrass. The method in brief: as §2
For assay [11], the system named is barnyardgrass (Echinochloa crus-galli). The assay can be described thus: Test A postemergence. The settings on record: Echinochloa crus-galli, post-emergence, 240 h, 125 g ai/ha, Postemergence; visual injury after approximately 10 d; 0 to 100 scale where 0 is no effect and 100 is complete control; read-out: Plant response rating, Barnyardgrass. The method in brief: as §2

In assay [12] the test system is ragweed (common ragweed, Ambrosia elatior). The assay can be described thus: Test A preemergence. The settings on record: Ambrosia artemisiifolia, pre-emergence, 240 h; for pest or weed control at 500 g/ha: 500 g ai/ha, preemergence, visual injury rating about 10 d after treatment, 0 to 100 scale (0 no effect, 100 complete control), read-out: Ragweed plant response rating. The method in brief: as §2

Assay [13] relates to Kochia (Kochia scoparia). The assay can be described thus: Test A preemergence. The settings on record: Bassia scoparia, pre-emergence, 240 h; for pest or weed control at 125 g/ha: 125 g ai/ha, Preemergence, visual injury rating after approximately 10 d, read-out: Kochia plant response rating (0 to 100 scale, 0 is no effect, 100 is complete control); for pest or weed control at 500 g/ha: 500 g ai/ha, preemergence, visual injury rating about 10 d after treatment, 0 to 100 scale (0 no effect, 100 complete control), read-out: Kochia plant response rating. The method in brief: as §2

Assay [14] concerns ryegrass, Italian (Italian ryegrass, Lolium multiflorum). Description: Test A preemergence. The settings on record: Lolium multiflorum, pre-emergence, 240 h; for pest or weed control at 125 g/ha: 125 g ai/ha, Preemergence, visual injury rating after approximately 10 d, read-out: Ryegrass, Italian plant response rating (0 to 100 scale, 0 is no effect, 100 is complete control); for pest or weed control at 500 g/ha: 500 g ai/ha, preemergence, visual injury rating about 10 d after treatment, 0 to 100 scale (0 no effect, 100 complete control), read-out: Ryegrass, Italian plant response rating. The method in brief:
as §2

The subject of assay [15] is giant foxtail (Setaria faberii). Description: Test A preemergence. The settings on record: Setaria faberi, pre-emergence, 240 h; for pest or weed control at 125 g/ha: 125 g ai/ha, Preemergence, visual injury rating after approximately 10 d, read-out: Foxtail, Giant plant response rating (0 to 100 scale, 0 is no effect, 100 is complete control); for pest or weed control at 500 g/ha: 500 g ai/ha, preemergence, visual injury rating about 10 d after treatment, 0 to 100 scale (0 no effect, 100 complete control), read-out: Foxtail, Giant plant response rating. The method in brief:
as §2

Assay [16] deals with pigweed (Amaranthus retroflexus). The assay can be described thus: Test A preemergence. The note with it: Amaranthus retroflexus, pre-emergence, 240 h; for pest or weed control at 125 g/ha: 125 g ai/ha, Preemergence, visual injury rating after approximately 10 d, read-out: Pigweed plant response rating (0 to 100 scale, 0 is no effect, 100 is complete control); for pest or weed control at 500 g/ha: 500 g ai/ha, preemergence, visual injury rating about 10 d after treatment, 0 to 100 scale (0 no effect, 100 complete control), read-out: Pigweed plant response rating.

In assay [17] the test system is barnyardgrass (Echinochloa crus-galli). Description: Test A preemergence. The settings on record: Echinochloa crus-galli, pre-emergence, 240 h; for pest or weed control at 125 g/ha: 125 g ai/ha, Preemergence, visual injury rating after approximately 10 d, read-out: Barnyardgrass plant response rating (0 to 100 scale, 0 is no effect, 100 is complete control); for pest or weed control at 500 g/ha: 500 g ai/ha, preemergence, visual injury rating about 10 d after treatment, 0 to 100 scale (0 no effect, 100 complete control), read-out: Barnyardgrass plant response rating. The method in brief: as §2

The test system of assay [18] is Kochia (Kochia scoparia). The assay can be described thus: Test A postemergence. The note with it: Bassia scoparia, post-emergence, 240 h, 125 g ai/ha, Postemergence; visual injury after approximately 10 d; 0 to 100 scale where 0 is no effect and 100 is complete control; read-out: Plant response rating, Kochia. The method in brief:
as §2

Like-named read-outs stand apart in the source and are kept apart here.

As for `CC(=O)Oc1ccc(NC(=O)[C@H]2C(=O)N(C)C[C@@H]2c2cc(F)cc(F)c2)c(F)c1` [Compound 996], the pest or weed control at 250 g/ha in assay [1] was determined as 70%; with rice (Oryra sativa), 0%; in assay [2] (0 to 100 scale where 0 is no effect and 100 is complete control) it was 0%; in assay [3], 0%. This compound yielded a Corn plant response rating (crop injury, 0 = no effect, 100 = complete kill) at 125 g/ha in the assay with corn (Zea mays) of 0%. The pest or weed control at 125 g/ha in [4], in assay [6], in [7], in [8], in assay [9] and in assay [10] was 0% each time. The pest or weed control at 125 g/ha in assay [11] was 0%; in assay [12] (125 g ai/ha, Preemergence, visual injury rating after approximately 10 d, read-out: Ragweed plant response rating (0 to 100 scale, 0 is no effect, 100 is complete control)) it was 0%; in the assay on Kochia (Kochia scoparia) [13], 0%; in assay [14], 0%; in assay [15] it was 0%; in [16], 0%. In assay [17], the pest or weed control at 125 g/ha amounted to 0%. For the same compound, in assay [5], the plant injury at 125 g/ha came out at 0%. The pest or weed control at 500 g/ha (in [12]; in the assay on Kochia (Kochia scoparia) [13]; in [14]; in [15]; in assay [16]; in [17]) was 0% each time.

As for `Cc1ccc([C@H]2CN(C)C(=O)[C@@H]2C(=O)Nc2cccc(F)c2C)cc1F` [Compound 982], the pest or weed control at 250 g/ha in [1] came out at 100%; with rice (Oryra sativa), 20%; in assay [2] (scale of 0 to 100 where 0 is no effect and 100 is complete control) it was 0%; in assay [3], 75%. The Corn plant response rating (crop injury, 0 = no effect, 100 = complete kill) at 125 g/ha in the assay on corn (Zea mays) amounted to 60%. Moreover, the pest or weed control at 125 g/ha in [4] is 20%; in the assay with Kochia (Kochia scoparia) [18] it was 50%; in [7] it was 60%; in assay [8], 90%; in assay [9] it was 0%; in assay [10] it was 70%. In addition, the pest or weed control at 125 g/ha worked out at 50% in the assay with Kochia (Kochia scoparia) [13]; 90% in [14]; 90% in assay [15]; 0% in assay [16]; 90% in assay [17]. Besides, the plant injury at 125 g/ha in assay [5] came to 70%. The pest or weed control at 500 g/ha turned out to be 80% in assay [12]; 90% in the assay on Kochia (Kochia scoparia) [13]; 90% in assay [14]; 100% in [15]; 50% in assay [16]; 90% in [17].
